# Values of other authors, collected in article PMC10056443, “Derivatives of Amaryllidaceae Alkaloid Ambelline as Selective Inhibitors of Hepatic Stage of Plasmodium berghei Infection In Vitro” (Pharmaceutics, 2023).
# Tests used:
# [1] = tested on: multidrug-resistant K1 strain; parameters: method as in doi:10.21577/0103-5053.20190061; conditions: cited from earlier work
# [2] = tested on: chloroquine-sensitive 3D7 strain; parameters: method as in doi:10.21577/0103-5053.20190061; conditions: cited from earlier work
compound,measurement,setting,value
"O[C@H]1[C@H]2c3cc4c(cc3CN3CCC(=C[C@@H]1O)[C@H]23)OCO4 [compound 6, lycorine]",IC50,[1],3100 nM
same,IC50,[2],2500 nM
